Data as given in patent US6432881B1 (dated 2002).

For Cn1nccc1OCc1c(S(C)(=O)=O)ccc(C(=O)C2C(=O)CC(C)(C)CC2=O)c1Cl (hydrate or solvate), the melting point was 82 °C.
